Values joined by “and” are separate entries in the source; they are usually repeats but may differ in a detail not shown here. Equal values may be shown once.
Assays:
[1] = human skin; for Mean permeability coefficient (KP × 10^3): from steady-state flux and donor solubility; for Flux from mineral oil: saturated solution in light mineral oil, 32° C., 48 h, codrug in 6-β-naltrexol equivalents
Description: Human skin harvested during abdominal reduction surgery was used for the diffusion studies. Skin sections were obtained by using a Padgett dermatome set to 250 μm; these sections were stored at −20° C. Stored skin samples were thawed to room temperature at the time of the experiment. A PermeGear flow-through (In-Line, Riegelsville, Pa., USA) diffusion cell system was used for the skin permeation studies. Skin surface temperature was maintained at 32° C. with a circulating water bath. Data was collected by using human skin from a single donor with three cells of 6-β-naltrexol and four cells CB-NTXOL-BUPOH. Because of normal human skin inter-subject permeation variability, the codrug was compared against 6-β-naltrexol permeation within each individual skin sample. These studies were repeated three times with skin from different human subject donors. The receiver solution was HEPES-buffered Hanks' balanced salt solution pH 7.4 set at a flow rate of 1.1 ml/h. […] A saturated solution of 6-β-naltrexol or CB-NTXOL-BUPOH in light mineral oil was applied to the skin in order to maintain a maximum and constant thermodynamic activity of the drug. Each cell was charged with 0.25 ml of the respective drug solution. […] All samples were immediately processed by solid phase extraction, evaporated under nitrogen, reconstituted, and analyzed for drug content by HPLC. The human tissue use was approved by the University of Kentucky Institutional Review Board.
Cumulative quantity of drug collected in the receiver compartment was plotted as a function of time. The flux value for a given experiment was obtained from the slope of the steady-state portion of the cumulative amount of drug permeated vs. time plot. Apparent permeability coefficient values were computed from Fick's First Law of diffusion:
Sink conditions were maintained in the receiver throughout the experiment, so ΔC was approximated by the drug concentration (solubility in this case) in the donor compartment.
The skin tissue was rinsed with filtered water and blotted with a paper towel. The tissue was tape-stripped twice to remove surface formulation. The area of skin with drug contact was cut out, chopped into tiny pieces, and placed in a pre-weighed vial. The vial was weighed to calculate the mass of the skin. Ten milliliters of acetonitrile was added to each vial, the vials vortexed, sonicated for 10 min, and placed in a shaker overnight. The following day, a 1 ml sample was obtained from the vials and placed in autosampler vials for analysis. […] Flux values and skin concentrations for each of the drugs were reported as mean±S.D and were statistically compared using a paired Student's t-test. Flux enhancement as well as drug disposition in the skin were considered significant at p<0.05.

[2] = Predicting plasma concentrations from in vitro permeation studies; settings: for plasma level predicted with 5.6-fold guinea pig/human skin factor: 6-β-naltrexol equivalents; for Predicted CSS of 6-β-naltrexol: Predicted from in vitro human skin diffusion data
Source text: To predict the plasma concentration of 6-β-naltrexol after application of the gel formulation containing either the codrug or the control formulation, the following equation was used: […]
where CSS is the predicted steady state plasma concentration (ng/ml); JSS is the steady-state flux from in vitro permeation in Table 4 from previous studies; A is the area of the skin in contact with the formulation (14.5 cm^2); Cl is the total body clearance. […] Guinea pig skin is often more permeable than human skin, especially when the stratum corneum is the major rate-limiting step in the absorption process.

[3] = Permeation studies in guinea pigs in vivo (topical gel, plasma pharmacokinetics); set-up: species or system hairless guinea pigs; settings: for Enhancement factor (delivery of 6-β-naltrexol in vivo): codrug gel versus 6-β-naltrexol base gel, guinea pigs; for Tlag of 6-β-naltrexol: lag time to steady-state; for Tlag of 6-β-naltrexol / AUC0-48 of 6-β-naltrexol / Cmax of 6-β-naltrexol / Tmax of 6-β-naltrexol / Observed CSS of 6-β-naltrexol: topical gel; for Tlag of 6-β-naltrexol / Cmax of 6-β-naltrexol / Tmax of 6-β-naltrexol / Observed CSS of 6-β-naltrexol: hairless guinea pigs; for AUC0-48 of 6-β-naltrexol / Cmax of 6-β-naltrexol / Tmax of 6-β-naltrexol: plasma; for AUC0-48 of 6-β-naltrexol: 14.5 cm^2, hairless guinea pigs; for Observed CSS of 6-β-naltrexol: steady-state plasma concentration, 48 h; for intact codrug in guinea pig plasma after topical application: in vivo plasma samples
Description: A hydroxyethyl cellulose-based gel was prepared for topical application. First, either CB-NTXOL-BUPOH or 6-β-naltrexol (˜25 mg each) was dissolved in 1 ml of PG:buffer, pH 7.4 (2:3, v/v) solution using a magnetic stirrer. Hydroxyethyl cellulose (2%, w/w) was dispersed into these mixtures, sonicated, vortexed, and allowed to form a gel at room temperature. The drug in each formulation was saturated, forming a suspension.
Male and female Hairless IAF and Hartley guinea pigs (Charles River) weighing 345-482 g were used for topical studies (n=5 to 6 per treatment group). Prior to surgery, the animals were treated with glycopyrrolate and buprenorphine (to induce analgesia), and then ketamine (100 mg/kg, i.p.) and xylazine (8 mg/kg, i.m.) were used for anesthetic purposes. Catheters were surgically implanted into the jugular vein. A “blank” baseline plasma sample was drawn from each animal immediately before drug treatment. 500 μL of the gel containing the drug was applied onto the dorsal region of the guinea pig with a syringe and subsequently spread to cover an area of 7.25 cm^2. A rubber ring fitted with a drug-impermeable backing laminate (MEDIFLEX® 1502) was used to enclose the area of gel application. ARcare® acrylic adhesive was used to ensure that the ring maintained contact with the skin. Additionally, a bio-occlusive tape was placed over the patches to further secure the formulation on the guinea pigs. Drug formulations were applied on both sides of each guinea pig to give a total application area of 14.5 cm^2. Plasma samples were obtained at predetermined time intervals, which included 48 h while the formulations were on the animal, and for another 48 h after patches and formulations were removed. Blood samples were immediately centrifuged at 10,000×g for 3 min, and the plasma was separated. Plasma samples were stored at −70° C. until analysis by liquid chromatographic mass spectrometry, LC-MS.
Topical administration data were analyzed by non-compartmental analysis to determine mean steady-state plasma concentration (CSS), lag time to steady-state (tlag), and area under the curve from 0 to 48 h, AUC0-48.

physchem = type: physicochemical; settings: for Light mineral oil solubility: 32° C., 48 h equilibration (Table 3); for Hanks' buffer solubility: pH 7.4, 32° C., 30 min sonication
Description: The solubilities of CB-NTXOL-BUPOH, hydroxybupropion, and 6-β-naltrexol were determined by adding excess quantity of drug to mineral oil or pre-warmed HEPES-buffered Hanks' salt solution pH 7.4 at 32° C. (skin surface temperature), with equilibration while shaking in a water bath at 60 rpm. Weighing 4 mg of each of the drugs and placing them in 1 ml of each of the respective solvents was enough to ensure that there was excess drug in solution. Samples were drawn into a pre-warmed glass syringe, filtered through a syringe filter (Mineral oil: Millex FG-13, Millipore, Billerica, Mass., USA, and buffer: nylon filter, Gelman, East Hills, N.Y., USA), and measured with respect to volume and diluted with an appropriate volume of acetonitrile or buffer. The drug from the buffer samples was immediately extracted by solid phase extraction as described above. Drugs in mineral oil were diluted with a hundred-fold volume of acetonitrile and extraction recoveries were >95% for all the drugs. The sampling procedure was done in triplicate, discarding the first 40% of the initial filtrate. […]. For buffer solubilities, samples were taken after 30 min of sonication (to minimize the hydrolysis of the codrug). No significant difference was found between 30 min sonication solubility measurements and equilibrium solubility measurements taken after 48 h for 6-β-naltrexol.

[4] = cumulative 6-β-naltrexol equivalents permeated

| SMILES | Mean permeability coefficient (KP × 10^3) [1] | Flux from mineral oil [1] | plasma level predicted with 5.6-fold guinea pig/human skin factor [2] | Enhancement factor (delivery of 6-β-naltrexol in vivo) [3] | Tlag of 6-β-naltrexol [3] | AUC0-48 of 6-β-naltrexol [3] | Cmax of 6-β-naltrexol [3] | Tmax of 6-β-naltrexol [3] | Light mineral oil solubility (physchem) | Hanks' buffer solubility (physchem) | further results |
| --- | --- | --- | --- | --- | --- | --- | --- | --- | --- | --- | --- |
| Oc1ccc2c3c1O[C@H]1[C@H](O)CC[C@@]4(O)[C@@H](C2)N(CC2CC2)CC[C@]314 [Compound 2, 6-β-naltrexol] | 12.00 cm/h | 0.36 nmol cm^−2 h^−1 | 1.1 ng/mL | 1 | 5.1 ± 0.7 h | 0.0664 ± 0.0079 µg·h/mL | 1.5 ± 0.2 ng/mL | 28.1 ± 1.5 h | 30 µM | 300 µM | Predicted CSS of 6-β-naltrexol [2]: 0.2 ± 0.1 ng/mL; Predicted CSS of 6-β-naltrexol ([2]; listed as NTXOL): 0.2 ± 0.1 ng/mL; Observed CSS of 6-β-naltrexol [3]: 1.25 ± 0.51 ng/mL and 1.2 ng/mL; Observed CSS of 6-β-naltrexol ([3]; listed as NTXOL): 1.2 ± 0.5 ng/mL |
| Cc1c(-c2cccc(Cl)c2)oc(=O)n1C(C)(C)COC(=O)Oc1ccc2c3c1OC1C(O)CCC4(O)C(C2)N(CC2CC2)CCC314 (stereo not shown) [Compound 26] | 0.47 cm/h | 1.34 nmol cm^−2 h^−1 | 3.9 ng/mL | five-fold | 5.0 ± 1.1 h | 0.282 ± 0.0145 µg·h/mL | 6.6 ± 0.4 ng/mL | 10.1 ± 0.9 h | 2880 µM | 530 µM | share of 6-β-naltrexol flux from intact CB-NTXOL-BUPOH [1, 4]: approximately 35%; share of 6-β-naltrexol flux originating from skin hydrolysis of codrug [1, 4]: 65%; Predicted CSS of 6-β-naltrexol ([2]; listed as CB-NTXOL-BUPOH): 0.7 ± 0.3 ng/mL; intact codrug in guinea pig plasma after topical application ([3]; listed as CB-NTXOL-BUPOH): only trace amounts of intact codrug; intact codrug in guinea pig plasma after topical application ([3]; listed as codrug): Only trace amounts; Observed CSS of 6-β-naltrexol ([3]; listed as CB-NTXOL-BUPOH): 6.4 ng/mL and 6.4 ± 0.9 ng/mL; Observed CSS of 6-β-naltrexol ([3]; listed as codrug): 6.40 ± 0.93 ng/mL |

From patent US8653271B2 (priority 2006, dated 2014)
